The conditions of data set [1]: H2O, 20° C., cited from earlier work.
Data set [2] is described as follows: Critical micelle concentration (CMC). The settings on record: H2O, 20° C.; approx. conversion of the mM value. Type of data set: physicochemical. An excerpt:
The term “critical micelle concentration” refers to the concentration of a surfactant in a polar solvent above which the surfactant molecules will spontaneously arrange as a micelle. In accordance with the invention, this value may be expressed in any convenient units of concentration, with the exception that when CMC values are undergoing comparison, the value is expressed as a molar concentration (i.e. in units of M, mM, μM, etc., as appropriate). In the present context a micelle is considered to be a colloid arrangement of surfactant molecules in a polar solvent in which the hydrophilic head groups are oriented towards the polar solvent in a substantially spherical shape and the hydrophobic tail groups are sequestered to the interior of the sphere. In the present context a reference to the CMC of a surfactant is a reference to the CMC of the surfactant in the conditions of the aqueous liquid composition of the invention (including physical conditions such as temperature), unless otherwise indicated. For convenience, this may be taken as the CMC of the surfactant in isolation in pure water at 20° C. CMC values may be calculated by any convenient means, preferably by one of the methods described in Mukerjee P., et. al, Critical Micelle Concentrations of Aqueous Surfactant Systems, United States Department of Commerce, Nat. Stnd. Ref. Data Ser., Nat. Bur. Stand., February 1971 (U.S.).

Data set [3] in a line: Turbidity of diluted mixtures, OD at 570 nm. The class given is physicochemical. Particulars: diluted from stock of 100000 ppm AG6210 and/or 25000 ppm ε-polylysine, analysed immediately. An excerpt: In general the experiments described in Examples 2 to 17 comprise two stages. First stage is the preparation of a concentrated solution of the surfactant(s) and crystal substrate in drinking water. This stage may involve the mixing of a pre-prepared stock solution(s) of the surfactant in drinking water and a pre-prepared stock solution of the substrate in drinking water. The exact procedure used is set out in each Example. The second stage is the dilution of aliquots of the stock solution with single aliquots of drinking water in glass vessels to result in diluted mixtures with varying (theoretical) concentrations of surfactant(s) and substrate as recited in the Tables of each Example. The diluted mixtures were incubated for the time and at the temperature recited in each Example before the amount of particulate matter in the mixture was assessed. This assessment was by spectrophotometer set to measure OD at a wavelength of 570 nm in Example 2 and, for Examples 3 to 17, by naked eye upon agitation of the vessel and illumination by electric light. […]
Test mixtures (100 ml) were prepared by pipetting appropriate amounts of the concentrated solution into glass flasks and adjusting the volume to 100 ml with drinking water. Mixtures were analysed immediately by measuring OD at 570 nm. […]

The next data set has as its system E. coli. Briefly: Antimicrobial efficacy, CFU count after 30 min contact. Type of data set: cell-based. The settings on record: ε-polylysine 250 ppm, AG 6210 0. The method, then: 100 μl of an E. coli suspension (˜1.5×10^8 CFUs) was added to 900 μl of a freshly prepared dilute ε-polylysine/AG6210 mixture of the invention (prepared as described above) and incubated for 30 min at room temperature. Reaction was stopped by adding 9 ml of neutraliser. Mixture was then diluted 1:10 and 1:100 and 100 μl of the neat mixture and each dilution was applied to agar plates. Plates were incubated for 48 hrs at 37° C. and CFUs counted.
The antimicrobial efficacy of the following dilute ε-polylysine/AG6210 mixtures, prepared in accordance with the invention, was assessed as described above.

Like-named read-outs stand apart in the source and are kept apart here.

Consider eight molecules from patent US10470459B2, “Antimicrobial preparations, methods for preparing the same and uses thereof to combat microorganisms” (IPABC LTD, priority 2014, dated 2019).

As for `CCCCCCCCCC[N+](C)(C)CCCCCCCCCC.[Cl-]` [di-n-decyldimethyl ammonium chloride], in data set [1], the CMC is given as 1.5 mM.

As to `CCCCCCCCO[C@@H]1O[C@H](CO)[C@@H](O[C@H]2O[C@H](CO)[C@@H](O)[C@H](O)[C@H]2O)[C@H](O)[C@H]1O` [n-octyl-β-D-maltopyranoside], the CMC entry in data set [1] is “CMC (H2O, 20° C.) of n-octyl-β-D-maltopyranoside: 23 mM”. For the molecule `CCCCCCCCCCO[C@@H]1O[C@H](CO)[C@@H](O[C@H]2O[C@H](CO)[C@@H](O)[C@H](O)[C@H]2O)[C@H](O)[C@H]1O` [n-decyl-β-D-maltopyranoside], the CMC entry in data set [1] is given as “CMC (H2O, 20° C.) of n-decyl-β-D-maltopyranoside: 1.6 mM”.

With `CCCCCCCCC(=O)N(C)C[C@H](O)[C@@H](O)[C@H](O)[C@H](O)CO` [n-nonanoyl-N-methylglucamine], the CMC result in data set [1] was “CMC (H2O, 20° C.) of n-nonanoyl-N-methylglucamine: 19-25 mM”; in data set [1] (listed as N-nonanoyl-N-methylglucamine), “CMC (H2O, 20° C.) of N-nonanoyl-N-methylglucamine: 19-25 mM”. As for `CCCCCCCCO[C@@H]1O[C@H](CO)[C@@H](O)[C@H](O)[C@H]1O` [n-octyl-β-D-glucopyranoside], in data set [2], the CMC was approximately 2800 ppm. Consider `CCCCCCCS[C@@H]1O[C@H](CO)[C@@H](O)[C@H](O)[C@H]1O` [n-heptyl-β-D-thioglucoside], for which, in data set [1], the CMC entry was “CMC (H2O, 20° C.) of n-heptyl-β-D-thioglucoside: 29 mM”. For ε-polylysine, the “Turbidity upon dilution (OD at 570 nm)” value in data set [3] is recorded as “do not show turbidity”. The “CFUs in each dilution of E. coli culture” value is listed as 100 CFUs with E. coli (dilution 1:1), 40 CFUs with E. coli (dilution 1:10) and 25 CFUs in the data set with E. coli (dilution 1:100). As for alkyl-dimethylbenzyl ammonium chloride, the CMC in data set [1] is recorded as 0.7 mM.
